Assay results: ChEMBL document CHEMBL3508693 (2016)

How the values were obtained:
[1] = Excretion (0-168h) of 14C-radioactivity in faeces following single oral dose of 300 mg [14C]SPP100 studied in healthy men; assay type: ADME, organism-based, Feces; conditions: human, in vivo, at 300 mg
[2] = Excretion (0-168h) of radioactivity in urine following intravenous administration of [14C] aliskiren hemifumarate at 1 mg.Kg-1 level in marmoset; assay type: ADME, organism-based, Callithrix jacchus; conditions: in vivo
[3] = Mean excretion of radioactivity (24-48h) in urine and faeces following single intravenous dose of 10 mg.Kg-1 [14C] aliskiren hemifumarate in mouse; assay type: ADME, organism-based, TgRasH2, Urine/Feces; conditions: in vivo
[4] = Mean excretion of radioactivity (0-72h) in urine and faeces following single oral dose of 500 mg.Kg-1 [14C] aliskiren hemifumarate in mouse; assay type: ADME, organism-based, TgRasH2, Urine/Feces; conditions: in vivo
[5] = Tmax (0-96h) of total radioactivity following oral administration of [14C] aliskiren hemifumarate at 100 mg.Kg-1 level in rat; assay type: ADME, organism-based, Albino HAN:WIST, Plasma; conditions: in vivo
[6] = % of radioactivity (24h) recovered in bile following single intravenous administration of 10 mg.Kg-1 [14C] aliskiren hemifumarate in male rat; assay type: ADME, organism-based, HAN:WIST(SPF); conditions: in vivo
[7] = % of radioactivity (48h) recovered in faeces of receiver rat following duodenal infusion of radioactivity through bile from donor rat treated with single intravenous administration of 10 mg.Kg-1 [14C] aliskiren hemifumarate; assay type: ADME, organism-based, HAN:WIST(SPF), Feces; conditions: in vivo
[8] = % of radioactivity (48h) recovered in urine of receiver rat following duodenal infusion of radioactivity through bile from donor rat treated with single intravenous administration of 10 mg.Kg-1 [14C] aliskiren hemifumarate; assay type: ADME, organism-based, HAN:WIST(SPF); conditions: in vivo
Cytochrome P450 4F3 = target: T1, Cytochrome P450 4F3 (Homo sapiens, UniProt Q08477); experiment: Metabolic clearance (ul.min.nmol-1 CYP) of aliskiren hemifumarate for CYP4F3B was determined in human liver microsome incubated with [14C]SPP100 hemifumarate; assay type: ADME; conditions: microsomes
T1 sequence (Q08477 whole entry): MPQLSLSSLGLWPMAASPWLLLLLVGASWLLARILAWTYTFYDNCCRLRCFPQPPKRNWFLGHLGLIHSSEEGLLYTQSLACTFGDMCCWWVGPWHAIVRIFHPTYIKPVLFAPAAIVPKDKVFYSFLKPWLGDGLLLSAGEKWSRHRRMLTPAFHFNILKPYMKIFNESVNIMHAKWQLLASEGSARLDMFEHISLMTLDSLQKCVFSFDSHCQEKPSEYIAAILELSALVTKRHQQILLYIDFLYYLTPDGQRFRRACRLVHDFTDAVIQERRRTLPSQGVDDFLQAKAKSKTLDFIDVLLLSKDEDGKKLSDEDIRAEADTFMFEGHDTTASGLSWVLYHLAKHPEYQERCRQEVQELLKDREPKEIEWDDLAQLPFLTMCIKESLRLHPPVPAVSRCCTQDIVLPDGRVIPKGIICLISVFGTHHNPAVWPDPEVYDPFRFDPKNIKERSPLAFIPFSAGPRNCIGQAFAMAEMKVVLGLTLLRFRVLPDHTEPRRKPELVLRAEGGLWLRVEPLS

[9] = Concentration of radioactivity in the brown fat following repeated oral administration of [14C] aliskiren hemifumarate at 100 mg.Kg-1 level studied at 2h after 3rd dose in rat; assay type: ADME, organism-based, Albino HAN:WIST, Brown adipose tissue; conditions: in vivo
[10] = % SPP100 in urine following single oral dose of 300 mg [14C]SPP100 studied in healthy men; assay type: ADME, organism-based; conditions: human, in vivo, at 300 mg
[11] = % SPP100 in faeces following single oral dose of 300 mg [14C]SPP100 studied in healthy men; assay type: ADME, organism-based, Feces; conditions: human, in vivo, at 300 mg
[12] = % SPP100 in urine and faeces following single oral dose of 300 mg [14C]SPP100 studied in healthy men; assay type: ADME, organism-based, Urine/Feces; conditions: human, in vivo, at 300 mg
CYP2C19 = CYP2C19 (Homo sapiens, UniProt P33261); experiment: Inhibitory activity of 20 uM SPP100 on 1131 Pmoles of cDNA-derived CYP2C19 enzyme in microsome prepared from human lymphoblastoid cell line; assay type: ADME, microsomes; parameters: conc 20 uM, interact cpd conc 50 uM; conditions: probe (S)-mephenytoin
Chain of CYP2C19 (P33261 whole entry): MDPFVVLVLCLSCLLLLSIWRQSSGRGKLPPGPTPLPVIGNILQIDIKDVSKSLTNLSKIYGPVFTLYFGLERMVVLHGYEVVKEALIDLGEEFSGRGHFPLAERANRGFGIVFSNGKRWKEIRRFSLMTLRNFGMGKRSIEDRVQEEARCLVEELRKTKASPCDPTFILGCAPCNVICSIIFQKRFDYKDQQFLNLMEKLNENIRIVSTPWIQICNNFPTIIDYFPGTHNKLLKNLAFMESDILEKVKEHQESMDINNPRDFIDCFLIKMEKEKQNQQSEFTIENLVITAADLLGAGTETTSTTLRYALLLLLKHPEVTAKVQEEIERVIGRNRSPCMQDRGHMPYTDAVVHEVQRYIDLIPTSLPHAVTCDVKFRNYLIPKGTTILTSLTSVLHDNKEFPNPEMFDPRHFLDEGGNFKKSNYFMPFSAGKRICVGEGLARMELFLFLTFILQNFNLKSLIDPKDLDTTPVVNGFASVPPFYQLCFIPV

[13] = % SPP100 recovered in urine following single intravenous administration of 10 mg.Kg-1 [14C] aliskiren hemifumarate in male rat; assay type: ADME, organism-based, HAN:WIST(SPF); conditions: in vivo
[14] = % of radioactivity recovered as aliskiren in faeces following oral administration of [14C] aliskiren hemifumarate at 100 mg.Kg-1 level in rat; assay type: ADME, organism-based, Albino HAN:WIST, Feces; conditions: in vivo
[15] = % of radioactivity recovered as aliskiren in faeces following intravenous administration of [14C] aliskiren hemifumarate at 10 mg.Kg-1 level in rat; assay type: ADME, organism-based, Albino HAN:WIST, Feces; conditions: in vivo
[16] = %Unchanged aliskiren in faeces following 10 day repeated oral administration of [14C] aliskiren hemifumarate at 100 mg.Kg-1 level studied in rat; assay type: ADME, organism-based, Albino HAN:WIST, Feces; conditions: in vivo, 240 h
[17] = AUC of aliskiren hemifumarate following single dosing of SPP100B oral solution at 40 mg level studied on day 1 in men; assay type: ADME, organism-based; conditions: male, human, plasma
[18] = Cmax/dose (0-96h) of unlabeled aliskiren hemifumarate following oral administration of aliskiren hemifumarate at 100 mg.Kg-1 level in rat; assay type: ADME, organism-based, Albino HAN:WIST, Plasma; conditions: in vivo
[19] = Effect of 2 week oral dosing of aliskiren hemifumarate at 10 mg.Kg-1 level on blood urea nitrogen level in male Callithrix jacchus; assay type: toxicity, organism-based, Plasma; conditions: marmoset, 336 h
[20] = Effect of 2 week oral dosing of aliskiren hemifumarate at 100 mg.Kg-1 level on plasma creatinine level in female Callithrix jacchus; assay type: toxicity, organism-based; conditions: marmoset, 336 h
[21] = Cmax of aliskiren hemifumarate following 2 week oral dosing of aliskiren hemifumarate at 100 mg.Kg-1 level studied on day 14 in male Callithrix jacchus; assay type: ADME, organism-based; conditions: marmoset, plasma
[22] = Cmax of aliskiren hemifumarate following 2 week oral dosing of aliskiren hemifumarate at 50 mg.Kg-1 level studied on day 14 in female Callithrix jacchus; assay type: ADME, organism-based; conditions: marmoset, plasma
[23] = Cmax of aliskiren hemifumarate following 2 week oral dosing of aliskiren hemifumarate at 100 mg.Kg-1 level studied on day 14 in female Callithrix jacchus; assay type: ADME, organism-based; conditions: marmoset, plasma
[24] = Absorption (0-96h) of unlabeled aliskiren hemifumarate following oral administration of aliskiren hemifumarate at 100 mg.Kg-1 level in rat; assay type: ADME, organism-based; conditions: Albino HAN:WIST, plasma, read-out: Absorption
[25] = Tmax of aliskiren hemifumarate following 4 week oral dietary dosing of aliskiren hemifumarate at 1500 mg.Kg-1 level in male mouse; assay type: ADME, organism-based; conditions: CB6F1-TGrasH2, mouse, in vivo
[26] = Tmax of aliskiren hemifumarate following 4 week oral dietary dosing of aliskiren hemifumarate at 2000 mg.Kg-1 level in male mouse; assay type: ADME, organism-based; conditions: CB6F1-TGrasH2, mouse, in vivo
[27] = Cmax/dose of aliskiren hemifumarate following 4 week oral dietary dosing of aliskiren hemifumarate at 1500 mg.Kg-1 level in male mouse; assay type: ADME, organism-based, CB6F1-TGrasH2; conditions: in vivo, 672 h
[28] = Tmax of aliskiren hemifumarate following 2 week oral dosing of aliskiren hemifumarate at 50 mg.Kg-1 level studied on day 1 in male Callithrix jacchus; assay type: ADME, organism-based; conditions: marmoset, plasma
[29] = Tmax of aliskiren hemifumarate following 2 week oral dosing of aliskiren hemifumarate at 100 mg.Kg-1 level studied on day 14 in male Callithrix jacchus; assay type: ADME, organism-based; conditions: marmoset, plasma
[30] = AUC(0-24h) of aliskiren hemifumarate following 2 week oral dosing of aliskiren hemifumarate at 50 mg.Kg-1 level studied on day 14 in female Callithrix jacchus; assay type: ADME, organism-based; conditions: marmoset, plasma
[31] = AUC(0-24h) of aliskiren hemifumarate following 2 week oral dosing of aliskiren hemifumarate at 100 mg.Kg-1 level studied on day 14 in female Callithrix jacchus; assay type: ADME, organism-based; conditions: marmoset, plasma

COCCCOc1cc(C[C@@H](C[C@H](N)[C@@H](O)C[C@H](C(=O)NCC([14CH3])([14CH3])C(N)=O)C(C)C)C(C)C)ccc1OC.O=C(O)/C=C/C(=O)O
Radiolabel recovery [1]: 90.89% | Radiolabel recovery [2]: 4.04% | Radiolabel recovery [3]: 7.51% | Radiolabel recovery [4]: 89.8% | Tmax [5]: 0.25 h | Tmax ([5]; iv, 10 mg/kg): 0.083 h | Radiolabel recovery [6]: 70% | Radiolabel recovery [7]: 26.6% | Radiolabel recovery [8]: 0.6% | CL (Cytochrome P450 4F3): 24 µL·min/nmol | Radiolabel recovery [9]: OUTCOME = Detected

COCCCOc1cc(C[C@@H](C[C@H](N)[C@@H](O)C[C@H](C(=O)NCC(C)(C)C(N)=O)C(C)C)C(C)C)ccc1OC
Compound recovery [10]: 0.4% | Compound recovery [11]: 77.5% | Compound recovery [12]: 79.8% | inhibition at 20 µM (CYP2C19): 5.1% | Compound recovery [13]: 79.8% | Compound recovery [14]: > 40% | Compound recovery [15]: > 40% | Compound recovery [16]: 80%

COCCCOc1cc(C[C@@H](C[C@H](N)[C@@H](O)C[C@H](C(=O)NCC(C)(C)C(N)=O)C(C)C)C(C)C)ccc1OC.COCCCOc1cc(C[C@@H](C[C@H](N)[C@@H](O)C[C@H](C(=O)NCC(C)(C)C(N)=O)C(C)C)C(C)C)ccc1OC.O=C(O)/C=C/C(=O)O [ALISKIREN FUMARATE]
AUC [17]: 0.0285 µg·h/mL | Cmax normalised [18]: 0.0027 (umol/L)/(mg/kg) | BUN_CHANGE_BY [19]: 5% | CREAT_CHANGE_BY [20]: 130% | Cmax [21]: 9670 ng/mL | Cmax [22]: 10100 ng/mL | Cmax [23]: 10600 ng/mL | Fa [24]: ≥ 3.4% | Tmax [25]: 3 h | Tmax [26]: 1 h | Cmax normalised [27]: 0.242 (ng/mL)/(mg/kg/day) | Tmax [28]: 1 h | Tmax [29]: 2 h | AUC at 24 h [30]: 109 µg·h/mL | AUC at 24 h [31]: 142 µg·h/mL
